We go through 4 compounds from patent US10822366B2, “Lincosamide derivatives, preparation and use thereof as antimicrobial agent” (MIKROBIOLOGICKY USTAV AV CR, V. V. I., priority 2017, dated 2020).

Converted amounts (≈) assume the structure as drawn.

In one assay the test system is Kocuria rhizophila. Briefly: Disc diffusion test (antibacterial activity). The note with it: paper discs (diameter 5 mm) saturated with 5 nmol compound; LB agar covered with lincomycin sensitive test strain Kocuria rhizophila; 37° C., 20 h. It is filed as cell-based. The method, then:
Filtration paper discs (geometric diameter 5 mm) saturated with 5 nmol of tested novel lincosamide compounds were placed on LB agar plates (tryptone 10 g, yeast extract 5 g, NaCl 10 g, supplemented with distilled water to 1000 mL, pH 7.5; agar 15 g) continuously covered with culture of the lincomycin sensitive test strain Kocuria rhizophila. The plates were incubated at 37° C. for 20 h.

The next assay relates to K. rhizophila. Briefly: Minimum inhibitory concentration determination (EUCAST method). It counts as cell-based, Kocuria rhizophila. The note with it: K. rhizophila in LB medium, concentration range 25-1600 nM tested, 24 h at 37° C. Here is the method: Minimum inhibitory concentrations were determined using the previously published method (European Committee for Antimicrobial Susceptibility Testing (EUCAST), Clin Microbiol Infect (2003), 9 (8), ix-xv). 5 μL suspension (McFarland scale 0.5) of K. rhizophila bacterial culture was inoculated into 1 mL of LB medium containing test substances of the desired concentration (a concentration range of 25-1600 nM was tested). The cultures were incubated for 24 h at 37° C.

As to `CCC[C@@H]1C[C@@H](C(=O)N[C@@H]([C@H]2O[C@H](SC)[C@H](O)[C@@H](O)[C@H]2O)[C@@H](C)O)N(C)C1` [Lincomycin], the “Disc diffusion test: size of inhibition zones” value with Kocuria rhizophila came out at 24 mm. Further, the minimum inhibitory concentration (MIC) against K. rhizophila is 0.4 µM (≈ 0.163 µg/mL).
For `CO[C@H](C)[C@@H](NC(=O)[C@@H]1CCCN1C)[C@H]1O[C@H](SCCOC(=O)c2ccccc2O)[C@H](O)[C@@H](O)[C@H]1O` [Celesticetin], the “Disc diffusion test: size of inhibition zones” value in the assay with Kocuria rhizophila stood at 19 mm. Also, the MIC in the assay on K. rhizophila was found to be 1.6 µM (≈ 0.846 µg/mL).
For the compound `CCC[C@@H]1C[C@@H](C(=O)N[C@@H]([C@H]2O[C@H](SCCOC(=O)c3ccccc3O)[C@H](O)[C@@H](O)[C@H]2O)[C@@H](C)O)N(C)C1`, the “Disc diffusion test: size of inhibition zones” value in the assay with Kocuria rhizophila amounted to 29 mm. In the assay on K. rhizophila (Kocuria rhizophila), this compound showed an MIC of 0.1 µM (≈ 0.0557 µg/mL).
Taken in the same sequence, the figures for `CCC[C@@H]1C[C@@H](C(=O)N[C@@H]([C@H]2O[C@H](SCCOC(=O)c3ccccc3O)[C@H](O)[C@@H](O)[C@H]2O)[C@@H](C)OC)N(C)C1` were 28 mm and 0.1 µM (≈ 0.0571 µg/mL).

As usually defined, the MIC is the least concentration at which growth counts as inhibited.
